Experimental data published in US20100179188A1, “NITROXIDE RADICAL AS TREATMENT FOR NEURODEGENERATION” (Office of Technology Transfer, NIH, priority 2007, published 2010).
“Also recorded” adds a separate entry of the source.

Experiments:
IRP2−/− mice = test: Hang-test of IRP2−/− mice on Tempo1-supplemented diet; format: in vivo
Excerpt: Mice: IRP2−/− mice were generated, propagated by breeding and genotyped as described in LaVaute et al., Nature Genetics, 27, 209-214 (2001). Mice used in this study have a 129S4/SvJae X C57B1/6 mixed background (specific proportions of each strain are not known). In experiments with mice of same genotype but on different diets siblings were used to minimize phenotypic variation due to differences in genetic background. Mice of different genotypes and on different diets were age and sex matched. All protocols were approved by the National Institute of Child Health and Human Development Animal Care and Use Committee, and met US National Institutes of Health guidelines for the humane care of animals. […]
Hang-test: In the hang-test, mice were allowed to grip a wire mesh that was then inverted. The length of time that a mouse could hang on to an inverted wire mesh before falling (up to a maximum of 60 seconds) was measured and recorded.
A stable nitroxide radical, Tempo1, was administered as a dietary supplement to knockout mice (IRP2−/−), and neurodegeneration was tested using the “hang test,” by which mice were allowed to grasp a wire mesh screen in an inverted position and the length of time that the mice could remain grasping the screen was measured (up to a maximum of 60 seconds). The hang test quantitatively assesses the progression of neurodegeneration in mice. […]

ferritin = test: Immunohistochemistry of ferritin in hippocampus and cortex; format: in vivo; conditions: hippocampus and cortex of IRP2−/− mice
Procedure: Diet: The mice were weaned 3-4 weeks after their birth. Immediately after weaning, mice were maintained on either a Tempo1-supplemented or control diet. In the Tempo1-supplemented diet, powdered Tempo1 was uniformly mixed with bacon-flavored mouse chow by a “cold press” technique (Bio-Serv, Frenchtown, N.J., USA) at a concentration of 10 mg/g of food. Bacon-flavored chow without Tempo1 was used as the control diet.
Immunohistochemistry: Paraffin-embedded tissue sections were boiled in a micro oven for 15 min for antigen retrieval in 10 mM citrate buffer pH 6.4 after dewaxing and rehydrating. The sections were blocked in blocking buffer (Tris-buffered saline pH 7.4, 5% nomial goat serum, 0.1% Tween-20) for 30 min, then were incubated with polyclonal rabbit anti-ferritin antibody for 2 h at room temperature, the protein-antibody complex was labeled by CY3-donkey anti-rabbit antibody (Jackson ImmunoResearch Laboratories, Inc., West Grove, Pa.), nuclei were labeled by DAPI as counterstaining. The slides were observed and the pictures were recorded with Nikon Eclipse E600 fluorescence microscope.
Immunohistochemical studies were performed to analyze ferritin expression in the hippocampus and cortexregions of the mouse brains. […] The overexpression of ferritin decreased with Tempo1 treatment.

purified holo-IRP1 = target: T1, purified holo-IRP1 (Homo sapiens, UniProt P21399); test: Aconitase activity of purified holo-IRP1, coupled solution assay; format: biochemical; conditions: purified protein, room air up to 2 h or 3 h at 37° C., vs control samples
T1 sequence (P21399 1-889): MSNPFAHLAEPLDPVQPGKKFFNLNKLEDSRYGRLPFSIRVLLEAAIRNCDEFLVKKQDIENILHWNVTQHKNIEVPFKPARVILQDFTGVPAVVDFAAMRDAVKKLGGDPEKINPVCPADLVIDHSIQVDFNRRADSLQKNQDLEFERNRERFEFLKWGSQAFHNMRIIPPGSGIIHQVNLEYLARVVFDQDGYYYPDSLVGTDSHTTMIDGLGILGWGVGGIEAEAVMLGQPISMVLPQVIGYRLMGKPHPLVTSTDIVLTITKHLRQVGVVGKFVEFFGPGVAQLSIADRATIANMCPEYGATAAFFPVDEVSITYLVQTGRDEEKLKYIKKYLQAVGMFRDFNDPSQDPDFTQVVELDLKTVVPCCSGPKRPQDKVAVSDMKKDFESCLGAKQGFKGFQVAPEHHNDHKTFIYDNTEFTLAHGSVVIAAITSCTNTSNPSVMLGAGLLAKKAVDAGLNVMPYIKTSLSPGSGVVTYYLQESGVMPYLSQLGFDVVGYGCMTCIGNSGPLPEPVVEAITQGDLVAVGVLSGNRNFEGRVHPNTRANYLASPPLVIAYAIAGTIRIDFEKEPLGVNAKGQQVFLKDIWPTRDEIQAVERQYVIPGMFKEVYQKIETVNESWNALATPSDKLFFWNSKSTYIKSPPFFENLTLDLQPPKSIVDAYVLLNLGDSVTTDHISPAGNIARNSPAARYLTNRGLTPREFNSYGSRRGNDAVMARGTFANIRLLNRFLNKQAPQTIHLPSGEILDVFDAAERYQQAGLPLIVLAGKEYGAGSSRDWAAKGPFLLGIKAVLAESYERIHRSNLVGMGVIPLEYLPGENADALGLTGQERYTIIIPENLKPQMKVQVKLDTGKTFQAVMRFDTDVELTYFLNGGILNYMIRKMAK

**Q.** How did the hang times (IRP2−/− mice; IRP2−/− mice on Tempo1 supplemented diet (10 mg/g of food) vs untreated knockout mice, max 60 seconds) turn out when `CC1(C)CC(O)CC(C)(C)N1[O]` [Tempo1] was run?
**A.** substantially increased

**Q.** What about the “protection from progressive loss of neuromuscular capability” value (IRP2−/− mice; IRP2−/− mice on Tempo1 supplemented diet, hang test, FIG. 1c) of the same molecule?
**A.** significantly (p value=0.009) protected

**Q.** What about the overexpression of ferritin (ferritin) of the same molecule?
**A.** decreased

**Q.** And the “loss of aconitase activity” value (purified holo-IRP1)?
**A.** comparable losses; also recorded: did not enhance
